Measurements from ChEMBL document CHEMBL4382231, “Chemical preparation, biological evaluation and 3D-QSAR of ethoxysulfuron derivatives as novel antifungal agents targeting acetohydroxyacid synthase” (Eur J Med Chem, 2019).
Converted amounts (≈) assume the structure as drawn. The source made the active and inactive calls. No cut-off for these calls is given here.

Tests used:
[1] = Inhibition of Candida albicans AHAS catalytic subunit using pyruvate as substrate measured after 30 mins by colorimetric method
[2] = test system: Candida parapsilosis; assay: Antifungal activity against Candida parapsilosis ATCC 22019 cultured in YNB media after 48 hrs by broth microdilution method; format: functional
[3] = test system: Candida albicans; assay: Antifungal activity against Candida albicans SC5314 cultured in YNB media after 48 hrs by broth microdilution method; format: functional
[4] = test system: Candida albicans; assay: Antifungal activity against fluconazole-resistant Candida albicans isolate g5 cultured in YNB media after 48 hrs by broth microdilution method; format: functional
[5] = test system: Candida albicans; assay: Antifungal activity against Candida albicans SC5314 cultured in YNB media after 72 hrs by broth microdilution method; format: functional
[6] = test system: Candida albicans; assay: Antifungal activity against fluconazole-resistant Candida albicans isolate 17 cultured in YNB media after 72 hrs by broth microdilution method; format: functional
[7] = test system: Saccharomyces cerevisiae; assay: Antifungal activity against Saccharomyces cerevisiae SC XH1549 cultured in YNB media after 72 hrs by broth microdilution method; format: functional
[8] = test system: Candida albicans; assay: Antifungal activity against Candida albicans SC5314 cultured in YNB media after 24 hrs by broth microdilution method; format: functional; details: SC5314, 24 h
[9] = test system: Candida albicans; assay: Antifungal activity against fluconazole-resistant Candida albicans isolate 17 cultured in YNB media after 24 hrs by broth microdilution method; format: functional
[10] = test system: Candida parapsilosis; assay: Antifungal activity against Candida parapsilosis ATCC 22019 cultured in YNB media after 72 hrs by broth microdilution method; format: functional
[11] = test system: Candida albicans; assay: Antifungal activity against Candida albicans SC5314 cultured in RPMI 1640 media after 24 hrs by broth microdilution method; format: functional; details: SC5314, 24 h
[12] = test system: Candida albicans; assay: Antifungal activity against Candida albicans SC5314 infected in Caenorhabditis elegans assessed as mortality at 20 nM after 24 hrs by propidium iodide staining based fluorescence microscopic analysis (reference value: 17%); format: functional
[13] = test system: Candida albicans; assay: Antifungal activity against fluconazole-resistant Candida albicans isolate g5 cultured in YNB media after 72 hrs by broth microdilution method; format: functional
[14] = test system: Saccharomyces cerevisiae; assay: Antifungal activity against Saccharomyces cerevisiae SC XH1549 cultured in YNB media after 48 hrs by broth microdilution method; format: functional
[15] = test system: Candida albicans; assay: Antifungal activity against fluconazole-resistant Candida albicans isolate g5 cultured in YNB media after 24 hrs by broth microdilution method; format: functional
[16] = test system: Candida albicans; assay: Antifungal activity against fluconazole-resistant Candida albicans isolate 17 cultured in YNB media after 48 hrs by broth microdilution method; format: functional
[17] = test system: Candida parapsilosis; assay: Antifungal activity against Candida parapsilosis ATCC 22019 cultured in YNB media after 24 hrs by broth microdilution method; format: functional; details: Lodderomyces parapsilosis, ATCC 22019, 24 h
[18] = test system: Saccharomyces cerevisiae; assay: Antifungal activity against Saccharomyces cerevisiae SC XH1549 cultured in YNB media after 24 hrs by broth microdilution method; format: functional; details: SC XH1549, 24 h
[19] = test system: Candida albicans; assay: Ratio of MIC for Candida albicans SC5314 cultured in RPMI 1640 media to MIC for Candida albicans SC5314 cultured in YNB media; format: functional
[20] = Toxicity in po dosed rat; format: organism-based; details: in vivo
[21] = Toxicity in topically applied rabbit; design: species or system Oryctolagus cuniculus; details: in vivo, topical or ocular
[22] = Lodderomyces parapsilosis, ATCC 22019, 48 h
[23] = Lodderomyces parapsilosis, ATCC 22019, 72 h

For `CCOc1ccccc1OS(=O)(=O)NC(=O)Nc1nc(OC)cc(OC)n1` [ETHOXYSULFURON], the Ki [1] was 21.6 nM, the pKi [1] was 7.66 and the MIC [2, 22] was 2.5 µg/mL (≈ 6.28 µM). The MIC ([3]; SC5314, 48 h) was 1.25 µg/mL (≈ 3.14 µM), the MIC ([4]; isolate g5, 48 h) was 1.25 µg/mL (≈ 3.14 µM) and the MIC ([5]; SC5314, 72 h) was 1.25 µg/mL (≈ 3.14 µM). The MIC ([6]; isolate 17, 72 h) was 2.5 µg/mL (≈ 6.28 µM), the MIC ([7]; SC XH1549, 72 h) was 5 µg/mL (≈ 12.6 µM) and the MIC [8] was 0.625 µg/mL (≈ 1.57 µM). It also gave an MIC ([9]; isolate 17, 24 h) of 1.25 µg/mL (≈ 3.14 µM), an MIC [10, 23] of 2.5 µg/mL (≈ 6.28 µM) and an MIC [11] of 12.5 µg/mL (≈ 31.4 µM). For the same compound, the Activity [12] was 3%, the MIC ([13]; isolate g5, 72 h) was 2.5 µg/mL (≈ 6.28 µM) and the MIC ([14]; SC XH1549, 48 h) was 5 µg/mL (≈ 12.6 µM). For the same compound, the MIC ([15]; isolate g5, 24 h) was 1.25 µg/mL (≈ 3.14 µM), the MIC ([16]; isolate 17, 48 h) was 2.5 µg/mL (≈ 6.28 µM) and the MIC [17] was 1.25 µg/mL (≈ 3.14 µM). For the same compound, the MIC [18] was 5 µg/mL (≈ 12.6 µM).
Work on `COc1cc(OC)nc(NC(=O)[N-]S(=O)(=O)Oc2ccccc2OCCI)n1.[Na+]` yielded a Ki [1] of 125 nM, a pKi [1] of 6.9 and an MIC [2, 22] of 20 µg/mL. For the same compound, the MIC ([3]; SC5314, 48 h) was 5 µg/mL, the MIC ([4]; isolate g5, 48 h) was 10 µg/mL and the “Ratio IC50” value [19] was 20. It also gave an MIC ([5]; SC5314, 72 h) of 10 µg/mL, an MIC ([6]; isolate 17, 72 h) of 20 µg/mL and an MIC ([7]; SC XH1549, 72 h) of over 80 µg/mL. It also gave an MIC [8] of 2.5 µg/mL, an MIC ([9]; isolate 17, 24 h) of 5 µg/mL and an MIC [10, 23] of 20 µg/mL. For the same compound, the MIC [11] was 50 µg/mL, the MIC ([13]; isolate g5, 72 h) was 20 µg/mL and the MIC ([14]; SC XH1549, 48 h) was over 80 µg/mL. For the same compound, the MIC ([15]; isolate g5, 24 h) was 5 µg/mL, the MIC ([16]; isolate 17, 48 h) was 10 µg/mL and the MIC [17] was 5 µg/mL. For the same compound, the MIC [18] was 80 µg/mL.
For `OC(Cn1cncn1)(Cn1cncn1)c1ccc(F)cc1F` [FLUCONAZOLE], the MIC [2] was “inactive”, the MIC [3] was “inactive” and the MIC [4] was “inactive”. For the same compound, the MIC [5] was “inactive”, the MIC [6] was “inactive” and the MIC [7] was “inactive”. The MIC [8] was 0.25 µg/mL (≈ 0.816 µM), the MIC [9] was “inactive” and the MIC [10] was “inactive”. For the same compound, the MIC [11] was 0.25 µg/mL (≈ 0.816 µM), the Activity [12] was 5% and the MIC [13] was “inactive”. For the same compound, the MIC [14] was “inactive”, the MIC [15] was “inactive” and the MIC [16] was “inactive”. The MIC [17] was 0.25 µg/mL (≈ 0.816 µM) and the MIC [18] was 0.25 µg/mL (≈ 0.816 µM).
For `C[C@@H]1[C@H](O)[C@@H](C)/C=C/C=C/C=C/C=C/C=C/C=C/C=C/[C@H](O[C@@H]2O[C@H](C)[C@@H](O)[C@H](N)[C@@H]2O)C[C@@H]2O[C@](O)(C[C@@H](O)C[C@@H](O)[C@H](O)CC[C@@H](O)C[C@@H](O)CC(=O)O[C@H]1C)C[C@H](O)[C@H]2C(=O)O` [AMPHOTERICIN B], the MIC [2, 22] was 2.5 µg/mL (≈ 2.71 µM), the MIC ([7]; SC XH1549, 72 h) was 2.5 µg/mL (≈ 2.71 µM) and the MIC [10, 23] was 2.5 µg/mL (≈ 2.71 µM). The MIC [11] was 1.56 µg/mL (≈ 1.69 µM), the MIC ([14]; SC XH1549, 48 h) was 2.5 µg/mL (≈ 2.71 µM) and the MIC [17] was 2.5 µg/mL (≈ 2.71 µM). It also gave an MIC [18] of 2.5 µg/mL (≈ 2.71 µM).
With `CCOC(=O)c1ccccc1OS(=O)(=O)[N-]C(=O)Nc1nc(OC)cc(OC)n1.[Na+]` the Ki [1] was 6.7 nM, the pKi [1] was 8.17 and the MIC [2, 22] was 2.5 µg/mL. The MIC ([3]; SC5314, 48 h) was 2.5 µg/mL, the MIC ([4]; isolate g5, 48 h) was 2.5 µg/mL and the “Ratio IC50” value [19] was 20. It also gave an MIC ([5]; SC5314, 72 h) of 2.5 µg/mL, an MIC ([6]; isolate 17, 72 h) of 5 µg/mL and an MIC ([7]; SC XH1549, 72 h) of 5 µg/mL. The MIC [8] was 1.25 µg/mL, the MIC ([9]; isolate 17, 24 h) was 2.5 µg/mL and the MIC [10, 23] was 2.5 µg/mL. It also gave an MIC [11] of 25 µg/mL, an Activity [12] of 7% and an MIC ([13]; isolate g5, 72 h) of 2.5 µg/mL. For the same compound, the MIC ([14]; SC XH1549, 48 h) was 5 µg/mL, the MIC ([15]; isolate g5, 24 h) was 2.5 µg/mL and the MIC ([16]; isolate 17, 48 h) was 5 µg/mL. For the same compound, the MIC [17] was 1.25 µg/mL and the MIC [18] was 2.5 µg/mL.
`COc1cc(Cl)nc(NC(=O)[N-]S(=O)(=O)Oc2ccccc2[N+](=O)[O-])n1.[Na+]` showed a Ki [1] of 265 nM, a pKi [1] of 6.58 and an MIC [8] of over 100 µg/mL. The MIC [11] was over 100 µg/mL.
Work on `COc1cc(Br)nc(NC(=O)[N-]S(=O)(=O)Oc2ccccc2OCCCl)n1.[Na+]` yielded a Ki [1] of 69 nM, a pKi [1] of 7.13 and an MIC [8] of over 100 µg/mL. It also gave an MIC [11] of over 100 µg/mL.
For `CCOC(=O)c1ccccc1S(=O)(=O)NC(=O)Nc1nc(Cl)cc(OC)n1` [CHLORIMURON ETHYL], the Activity [12] was 8%, the LD50 [20] was over 4000 mg/kg and the LD50 [21] was over 2000 mg/kg.
`CCOC(=O)c1ccccc1OS(=O)(=O)NC(=O)Nc1nc(OC)cc(OC)n1` gave a Ki [1] of 6.3 nM, an MIC [2, 22] of 2.5 µg/mL (≈ 5.86 µM) and an MIC ([3]; SC5314, 48 h) of 2.5 µg/mL (≈ 5.86 µM). For the same compound, the MIC ([4]; isolate g5, 48 h) was 2.5 µg/mL (≈ 5.86 µM), the MIC ([5]; SC5314, 72 h) was 2.5 µg/mL (≈ 5.86 µM) and the MIC ([6]; isolate 17, 72 h) was 5 µg/mL (≈ 11.7 µM). For the same compound, the MIC ([7]; SC XH1549, 72 h) was 5 µg/mL (≈ 11.7 µM), the MIC [8] was 1.25 µg/mL (≈ 2.93 µM) and the MIC ([9]; isolate 17, 24 h) was 2.5 µg/mL (≈ 5.86 µM). The MIC [10, 23] was 2.5 µg/mL (≈ 5.86 µM), the MIC ([13]; isolate g5, 72 h) was 2.5 µg/mL (≈ 5.86 µM) and the MIC ([14]; SC XH1549, 48 h) was 5 µg/mL (≈ 11.7 µM). The MIC ([15]; isolate g5, 24 h) was 2.5 µg/mL (≈ 5.86 µM), the MIC ([16]; isolate 17, 48 h) was 5 µg/mL (≈ 11.7 µM) and the MIC [17] was 1.25 µg/mL (≈ 2.93 µM). The MIC [18] was 2.5 µg/mL (≈ 5.86 µM).
Compound `CCOC(=O)c1ccccc1OS(=O)(=O)[N-]C(=O)Nc1nc(C)cc(Cl)n1.[Na+]` has a Ki [1] of 37.1 nM, a pKi [1] of 7.43 and an MIC [8] of over 100 µg/mL. For the same compound, the MIC [11] was over 100 µg/mL.
